Experimental data from ChEMBL document CHEMBL1156644, “Cembrane diterpenes from the gorgonian Leptogorgia laxa” (2008).

Experiments:
Format in all cases: functional
HT-29 = assay: Cytotoxicity against human HT29 cells by SRB method
MDA-MB-231 = assay: Cytotoxicity against human MDA-MB-231 cells by SRB method
A549 = assay: Cytotoxicity against human A549 cells by SRB method

SMILES | GI50 (HT-29) [µM] | GI50 (MDA-MB-231) [µM] | GI50 (A549) [µM]
C=C(C)[C@@H]1CC/C(C)=C/CC/C(C)=C\C(=O)C[C@@]2(C)O[C@@H]2C1 [LEPTODIENONE A] | 14.9 | 16.2 | –
C=C(C)[C@@H]1CC/C(C)=C/CC/C(C)=C/C(=O)C[C@@]2(C)O[C@@H]2C1 [LEPTODIENONE B] | 10.9 | 6.3 | 5.6
